Assay results from patent US11272841B2, “Indicator fluids, systems, and methods for assessing movement of substances within, to or from a cerebrospinal fluid, brain or spinal cord compartment of a cranio-spinal cavity of a human” (BRAINWIDESOLUTIONS AS, priority 2017, dated 2022).

Legend:
[1] = Percentage change in normalized T1 signal unit ratios in FreeSurfer-segmented brain regions after intrathecal gadobutrol (Table 5, FIG. 14e-h); type: in vivo, human; conditions: for Percentage change in signal unit ratios: mean ± SD
Excerpt: The alignment of longitudinal data is illustrated in FIG. 14c-d. When repeated MRIs are obtained proper alignment is necessary for use of segmentation tools. Otherwise, it is not possible to examine how signals within defined regions of interest change over time. […] The co-registered MRI 1409 show no good co-registration. In FIG. 14d is shown coronal T1 MRIs at Time 1 1410 and Time 2 1411, including co-registered MRIs 1412. In this latter case proper alignment is obtained. Methodology for alignment is established from prior art, as is methodology for segmentation of MRI acquisitions. The inventors have used the FreeSurfer software (version 6.0) (http://surfer.nmr.mgh.harvard.edu/) for segmentation and parcellation, and to measure how an indicator fluid present within CSF (the MRI contrast agent gadobutrol) changed the T1 SU. In this case, the MRI contrast agent was used as CSF tracer. The FreeSurfer software utilizes automated Talairach transformation 1402, and allows for segmentation of a wide range of brain regions, including the subcortical white matter and deep gray matter volumetric structures (including hippocampus, amygdala, caudate, putamen, ventricles).
Using prior art methodology for alignment and segmentation, changes in indication signals over time may be determined. This is further illustrated in Table 5. The results are from 8 individuals who underwent MRI for tentative idiopathic intracranial hypotension due to CSF leakage. A CSF leakage was identified in 3/8 individuals. Otherwise the individuals were healthy. Table 5 presents the percentage change in normalized T1 signals, i.e. indication signal ratios, over time, as compared to T1 weighted MRI without CSF tracer present. […] The MRI signal increase was significant at all main locations (Table 5). The determination of signal unit ratios was described with reference to FIG. 7.
Each image acquisition lasted 6 minutes and 29 seconds.
The inventors determined percentage change in signal units when indicator fluid was present in the CSF compartment, as compared to a point of time without any indicator fluid within the CSF compartment. Four different regions were examined, segmented using FreeSurfer, namely CSF (FIG. 14e), entorhinal cortex (FIG. 14f), hippocampus (FIG. 14g) and Limbic structures (FIG. 14h). The two cohorts of individuals included reference subjects who were close to healthy and a population with a subtype of dementia. For the CSF compartment (FIG. 14e) is shown percentage change in signal unit ratios 1413 versus time 1414, including trend plots for reference subjects 1415 and individuals with dementia 1416. […] Peak for reference subjects occurred after 6-9 hours while after 24 hours for the dementia population.

[2] = cited from earlier work
[3] = human, in vivo
Experimental: Repeated T1-weighted MRI scans of the intracranial compartment (and neck region for imaging of cervical lymph nodes), either in the presence or absence of the MRI contrast agent gadobutrol (0.5 ml of 1.0 mmol/ml; Gadovist®, Bayer Pharma AG, GE) delivered to the CSF compartment. MRI scans were acquired on a 3 Tesla Philips Ingenia MRI scanner (Philips Medical systems, Best, The Netherlands). The inventors used a dedicated imaging protocol for each region, that was applied to all time points. The following parameters for 3D T1 w imaging of the intracranial compartment were used: repetition time (TR)=5.1 ms (set to minimum), echo time (TE)=2.3 ms (set to minimum), flip angle=8 degrees, field of view=256×256 cm, and matrix=256×256 pixels (reconstructed 512×512). Total 184 over-contiguous slices with 1 mm thickness were sampled and automatically reconstructed to 368 slices and a thickness of 0.5 mm. Each image acquisition lasted 6 minutes and 29 seconds. An automated anatomy recognition protocol based on landmark detection in MRI data (SmartExam™, Philips Medical Systems, Best, The Netherlands) was applied at every time point to secure consistency and reproducibility of the MRI studies. Neck images were obtained in an anatomical standardized coronal plane, using T1 weighted turbo spin echo (TSE) DIXON with the following main image sequence parameters: TR=560 ms, TE=14 ms, flip angle=90 degrees, field of view 250×198 mm, voxel size=1×1×3 mm reconstructed to 0.58×0.58×3 mm^3, gap 0.3 mm, number of slices=30. For detection of neck lymph nodes, we obtained coronal T2 weighted TSE DIXON with TR=ranged 2500-3500 (actual 2500), TE=80 ms, flip angle=90 degrees, field of view 250×200 mm, resolution 0.6×0.79×3 mm^3 reconstructed to 0.58×0.58×3 mm^3, gap 0.3 mm, number of slices=30. Moreover, to ensure same position on the coronal slices between scan times a screen dump showing the placement of the first coronal images was saved and used as a reference for subsequent planning by the radiographer. […]

With O=C([O-])CN1CCN(CC(=O)[O-])CCN([C@H](CO)[C@H](O)CO)CCN(CC(=O)[O-])CC1.[Gd+3] (racemic) [gadobutrol] the “Percentage change in signal unit ratios” value ([1]; Basal ganglia, 1.5-2 hours) was −3 ± 8%, the “Percentage change in signal unit ratios” value ([1]; Basal ganglia, 2-4 hours) was −6 ± 14% and the “Percentage change in signal unit ratios” value ([1]; Basal ganglia, 4-6 hours) was 1 ± 25%. The “Percentage change in signal unit ratios” value ([1]; Basal ganglia, 6-9 hours) was −4 ± 14%, the “Percentage change in signal unit ratios” value ([1]; Basal ganglia, 24 hours) was 4 ± 18% and the “Time of peak percentage change in signal unit ratios” value ([1]; CSF (FIG. 14e), reference subjects and dementia individuals) was 6 to 9 h. The “Percentage change in signal unit ratios” value ([1]; CSF [24], 1.5-2 hours after intrathecal gadobutrol, 8 individuals) was 16 ± 20%, the “Percentage change in signal unit ratios” value ([1]; CSF [24], 2-4 hours) was 101 ± 116% and the “Percentage change in signal unit ratios” value ([1]; CSF [24], 4-6 hours) was 354 ± 309%. The “Percentage change in signal unit ratios” value ([1]; CSF [24], 6-9 hours) was 500 ± 421%, the “Percentage change in signal unit ratios” value ([1]; CSF [24], 24 hours) was 157 ± 164% and the “Percentage change in signal unit ratios” value ([1]; Cerebellar cortex, 1.5-2 hours) was 6 ± 6%. For the same compound, the “Percentage change in signal unit ratios” value ([1]; Cerebellar cortex, 2-4 hours) was 12 ± 27%, the “Percentage change in signal unit ratios” value ([1]; Cerebellar cortex, 4-6 hours) was 45 ± 58% and the “Percentage change in signal unit ratios” value ([1]; Cerebellar cortex, 6-9 hours) was 67 ± 80%. For the same compound, the “Percentage change in signal unit ratios” value ([1]; Cerebellar cortex, 24 hours) was 53 ± 47%, the “Percentage change in signal unit ratios” value ([1]; Cerebellar white matter, 1.5-2 hours) was 1 ± 9% and the “Percentage change in signal unit ratios” value ([1]; Cerebellar white matter, 2-4 hours) was −3 ± 14%. The “Percentage change in signal unit ratios” value ([1]; Cerebellar white matter, 4-6 hours) was 3 ± 23%, the “Percentage change in signal unit ratios” value ([1]; Cerebellar white matter, 6-9 hours) was 2 ± 19% and the “Percentage change in signal unit ratios” value ([1]; Cerebellar white matter, 24 hours) was 15 ± 23%. For the same compound, the “Percentage change in signal unit ratios” value ([1]; Cerebral cortex (grey matter), 1.5-2 hours) was −3 ± 7%, the “Percentage change in signal unit ratios” value ([1]; Cerebral cortex (grey matter), 2-4 hours) was −1 ± 15% and the “Percentage change in signal unit ratios” value ([1]; Cerebral cortex (grey matter), 4-6 hours) was 26 ± 44%. For the same compound, the “Percentage change in signal unit ratios” value ([1]; Cerebral cortex (grey matter), 6-9 hours) was 44 ± 50%, the “Percentage change in signal unit ratios” value ([1]; Cerebral cortex (grey matter), 24 hours) was 52 ± 54% and the “Percentage change in signal unit ratios” value ([1]; Cerebral white matter, 1.5-2 hours) was −3 ± 9%. The “Percentage change in signal unit ratios” value ([1]; Cerebral white matter, 2-4 hours) was −1 ± 18%, the “Percentage change in signal unit ratios” value ([1]; Cerebral white matter, 4-6 hours) was 26 ± 40% and the “Percentage change in signal unit ratios” value ([1]; Cerebral white matter, 6-9 hours) was 34 ± 46%. The “Percentage change in signal unit ratios” value ([1]; Cerebral white matter, 24 hours) was 27 ± 33%, the “Percentage change in signal unit ratios” value ([1]; Hippocampus, amygdala, accumbens, entorhinal, 1.5-2 hours) was −2 ± 7% and the “Percentage change in signal unit ratios” value ([1]; Hippocampus, amygdala, accumbens, entorhinal, 2-4 hours) was −1 ± 15%. The “Percentage change in signal unit ratios” value ([1]; Hippocampus, amygdala, accumbens, entorhinal, 4-6 hours) was 28 ± 38%, the “Percentage change in signal unit ratios” value ([1]; Hippocampus, amygdala, accumbens, entorhinal, 6-9 hours) was 43 ± 43% and the “Percentage change in signal unit ratios” value ([1]; Hippocampus, amygdala, accumbens, entorhinal, 24 hours) was 42 ± 39%. The “Percentage change in signal unit ratios” value ([1]; Thalamus, 1.5-2 hours) was −2 ± 8%, the “Percentage change in signal unit ratios” value ([1]; Thalamus, 2-4 hours) was −4 ± 15% and the “Percentage change in signal unit ratios” value ([1]; Thalamus, 4-6 hours) was 5 ± 26%. The “Percentage change in signal unit ratios” value ([1]; Thalamus, 6-9 hours) was 2 ± 18%, the “Percentage change in signal unit ratios” value ([1]; Thalamus, 24 hours) was 11 ± 21% and the “Time of peak percentage change in signal unit ratios” value ([1]; entorhinal cortex, dementia population) was 24 h. The “Time of peak percentage change in signal unit ratios” value ([1]; entorhinal cortex, reference subjects) was 6 to 9 h, the “Time of peak percentage change in signal unit ratios” value ([1]; hippocampus, dementia cohort) was 24 h and the “Time of peak percentage change in signal unit ratios” value ([1]; hippocampus, reference subjects) was 6 to 9 h. For the same compound, the “Time of peak percentage change in signal unit ratios” value ([1]; limbic structures, dementia cohort) was 24 h, the “Time of peak percentage change in signal unit ratios” value ([1]; limbic structures, reference subjects) was 6 to 9 h and the “Half-time of gadobutrol in blood” value [2] was “about 1.8 hours”. For the same compound, the “Increase of indication signal as compared without contrast” value [3] was 29%, the “SU enhancement within cervical LNs as proportion of that in the brain” value [3] was “about 40%” and the “Time of peak enhancement in T1 SUs after gadobutrol present within CSF” value [3] was 24 h.
